In ChEMBL document CHEMBL4190335, “Design of KDM4 Inhibitors with Antiproliferative Effects in Cancer Models” (ACS Med Chem Lett, 2017):
Activity calls are given as the source filed them. The calls are words filed in the database; no cut-off is given here.

Tests used:
[1] = AUC in CD-1 mouse at 10 mg/kg, po; assay type: ADME, organism-based; settings: in vivo
[2] = Oral bioavailability in CD-1 mouse at 10 mg/kg; assay type: ADME, organism-based; settings: in vivo
[3] = molecular target: Lysine-specific demethylase 6B (Homo sapiens, UniProt O15054); assay: Inhibition of KDM6B (unknown origin) using biotinylated H3K27me3 peptide and alpha-ketoglutarate as substrate pretreated for 1 hr followed by substrate addition measured after 20 mins by LANCE TR-FRET assay
[4] = molecular target: T1, Lysine-specific demethylase 3A (Homo sapiens, UniProt Q9Y4C1); assay: Inhibition of KDM3A (unknown origin) using biotinylated H3K9me1 peptide and alpha-ketoglutarate as substrate measured after 20 mins by LANCE TR-FRET assay
T1 sequence (Q9Y4C1 whole entry): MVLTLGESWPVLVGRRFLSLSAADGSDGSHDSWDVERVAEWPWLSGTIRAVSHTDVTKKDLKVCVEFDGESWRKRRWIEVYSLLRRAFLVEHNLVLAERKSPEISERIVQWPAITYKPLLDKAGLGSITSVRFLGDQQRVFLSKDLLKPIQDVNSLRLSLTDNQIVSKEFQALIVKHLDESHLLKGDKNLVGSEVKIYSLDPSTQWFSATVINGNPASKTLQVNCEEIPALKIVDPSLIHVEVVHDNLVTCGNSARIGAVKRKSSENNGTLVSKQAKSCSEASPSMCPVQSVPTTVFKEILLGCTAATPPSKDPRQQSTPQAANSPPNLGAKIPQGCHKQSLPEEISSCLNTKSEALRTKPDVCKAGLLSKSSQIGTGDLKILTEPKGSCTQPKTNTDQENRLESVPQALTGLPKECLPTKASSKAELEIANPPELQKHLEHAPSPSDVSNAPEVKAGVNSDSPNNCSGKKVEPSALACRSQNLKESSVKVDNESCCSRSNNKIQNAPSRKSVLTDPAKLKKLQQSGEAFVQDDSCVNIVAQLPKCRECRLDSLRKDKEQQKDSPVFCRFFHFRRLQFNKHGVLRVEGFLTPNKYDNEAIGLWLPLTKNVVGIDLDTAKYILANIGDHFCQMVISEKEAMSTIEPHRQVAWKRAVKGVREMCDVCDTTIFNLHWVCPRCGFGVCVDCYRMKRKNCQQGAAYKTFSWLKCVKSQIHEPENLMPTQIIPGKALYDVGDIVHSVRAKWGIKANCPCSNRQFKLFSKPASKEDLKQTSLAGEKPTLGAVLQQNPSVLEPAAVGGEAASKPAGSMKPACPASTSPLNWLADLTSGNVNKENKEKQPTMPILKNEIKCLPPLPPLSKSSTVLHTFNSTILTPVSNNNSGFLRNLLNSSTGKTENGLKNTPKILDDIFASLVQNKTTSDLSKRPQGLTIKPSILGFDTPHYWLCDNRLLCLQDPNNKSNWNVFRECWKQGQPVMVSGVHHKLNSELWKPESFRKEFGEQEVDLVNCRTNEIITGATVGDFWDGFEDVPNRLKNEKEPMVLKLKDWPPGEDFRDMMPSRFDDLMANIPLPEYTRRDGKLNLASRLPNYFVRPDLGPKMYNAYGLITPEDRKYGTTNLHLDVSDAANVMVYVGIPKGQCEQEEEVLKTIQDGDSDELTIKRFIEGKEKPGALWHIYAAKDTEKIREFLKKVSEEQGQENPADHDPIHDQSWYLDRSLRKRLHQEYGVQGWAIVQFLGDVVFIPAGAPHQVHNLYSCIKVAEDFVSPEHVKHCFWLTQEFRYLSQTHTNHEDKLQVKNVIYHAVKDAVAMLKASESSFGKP

[5] = molecular target: Lysine-specific demethylase 3B (Homo sapiens, UniProt Q7LBC6); assay: Inhibition of KDM3B (unknown origin) using biotinylated H3K9me1 peptide and alpha-ketoglutarate as substrate measured after 20 mins by LANCE TR-FRET assay
[6] = Systemic clearance in CD-1 mouse at 5 mg/kg, iv; assay type: ADME, organism-based; settings: in vivo
[7] = molecular target: T2, Lysine-specific demethylase 2B (Homo sapiens, UniProt Q8NHM5); assay: Inhibition of KDM2B (unknown origin) using biotinylated H3K36me2 peptide and alpha-ketoglutarate as substrate pretreated for 1 hr followed by substrate addition measured after 20 mins by LANCE TR-FRET assay
T2 sequence (Q8NHM5 whole entry): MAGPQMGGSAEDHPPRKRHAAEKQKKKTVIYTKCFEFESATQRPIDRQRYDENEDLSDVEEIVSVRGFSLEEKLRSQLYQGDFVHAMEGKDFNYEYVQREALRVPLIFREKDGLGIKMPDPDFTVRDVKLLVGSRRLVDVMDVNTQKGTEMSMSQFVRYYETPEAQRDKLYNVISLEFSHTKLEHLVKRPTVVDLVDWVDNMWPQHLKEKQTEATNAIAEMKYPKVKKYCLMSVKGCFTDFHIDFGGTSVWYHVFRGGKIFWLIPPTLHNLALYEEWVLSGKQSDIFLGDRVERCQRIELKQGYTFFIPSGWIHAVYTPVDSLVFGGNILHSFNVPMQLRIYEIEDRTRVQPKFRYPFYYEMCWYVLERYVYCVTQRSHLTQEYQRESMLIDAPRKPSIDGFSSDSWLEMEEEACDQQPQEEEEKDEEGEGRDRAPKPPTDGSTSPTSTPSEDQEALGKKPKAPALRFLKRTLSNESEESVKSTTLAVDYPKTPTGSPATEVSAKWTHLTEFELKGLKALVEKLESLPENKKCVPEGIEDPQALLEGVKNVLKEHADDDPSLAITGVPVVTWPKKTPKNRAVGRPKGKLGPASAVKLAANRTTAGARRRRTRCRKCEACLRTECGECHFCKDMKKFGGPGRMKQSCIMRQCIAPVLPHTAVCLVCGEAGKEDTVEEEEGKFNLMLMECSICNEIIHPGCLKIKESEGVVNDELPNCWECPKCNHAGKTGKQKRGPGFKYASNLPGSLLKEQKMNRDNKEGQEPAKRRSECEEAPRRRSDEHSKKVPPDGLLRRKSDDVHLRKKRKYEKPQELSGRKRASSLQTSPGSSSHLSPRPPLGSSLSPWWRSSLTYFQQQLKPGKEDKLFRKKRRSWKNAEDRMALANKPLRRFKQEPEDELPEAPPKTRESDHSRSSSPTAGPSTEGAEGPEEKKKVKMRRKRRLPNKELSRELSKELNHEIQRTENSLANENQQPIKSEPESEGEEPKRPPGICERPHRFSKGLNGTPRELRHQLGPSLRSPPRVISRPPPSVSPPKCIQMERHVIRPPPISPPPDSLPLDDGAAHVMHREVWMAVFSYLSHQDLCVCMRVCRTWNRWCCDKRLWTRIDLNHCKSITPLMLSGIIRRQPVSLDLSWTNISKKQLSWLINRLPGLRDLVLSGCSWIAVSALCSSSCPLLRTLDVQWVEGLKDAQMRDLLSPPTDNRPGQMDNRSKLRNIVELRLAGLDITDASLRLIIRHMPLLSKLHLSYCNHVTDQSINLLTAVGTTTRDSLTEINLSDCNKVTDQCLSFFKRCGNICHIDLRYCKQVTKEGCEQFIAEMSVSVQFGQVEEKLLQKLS

[8] = Volume of distribution in CD-1 mouse at 5 mg/kg, iv; assay type: ADME, organism-based; settings: in vivo
[9] = molecular target: T3, Lysine-specific demethylase 4C (Homo sapiens, UniProt Q9H3R0); assay: Inhibition of KDM4C (unknown origin) using biotinylated H3K9me3 peptide and alpha-ketoglutarate as substrate pretreated for 1 hr followed by substrate addition measured after 20 mins in presence of 0.02 mg/ml BSA by LANCE TR-FRET assay
T3 sequence (Q9H3R0 whole entry): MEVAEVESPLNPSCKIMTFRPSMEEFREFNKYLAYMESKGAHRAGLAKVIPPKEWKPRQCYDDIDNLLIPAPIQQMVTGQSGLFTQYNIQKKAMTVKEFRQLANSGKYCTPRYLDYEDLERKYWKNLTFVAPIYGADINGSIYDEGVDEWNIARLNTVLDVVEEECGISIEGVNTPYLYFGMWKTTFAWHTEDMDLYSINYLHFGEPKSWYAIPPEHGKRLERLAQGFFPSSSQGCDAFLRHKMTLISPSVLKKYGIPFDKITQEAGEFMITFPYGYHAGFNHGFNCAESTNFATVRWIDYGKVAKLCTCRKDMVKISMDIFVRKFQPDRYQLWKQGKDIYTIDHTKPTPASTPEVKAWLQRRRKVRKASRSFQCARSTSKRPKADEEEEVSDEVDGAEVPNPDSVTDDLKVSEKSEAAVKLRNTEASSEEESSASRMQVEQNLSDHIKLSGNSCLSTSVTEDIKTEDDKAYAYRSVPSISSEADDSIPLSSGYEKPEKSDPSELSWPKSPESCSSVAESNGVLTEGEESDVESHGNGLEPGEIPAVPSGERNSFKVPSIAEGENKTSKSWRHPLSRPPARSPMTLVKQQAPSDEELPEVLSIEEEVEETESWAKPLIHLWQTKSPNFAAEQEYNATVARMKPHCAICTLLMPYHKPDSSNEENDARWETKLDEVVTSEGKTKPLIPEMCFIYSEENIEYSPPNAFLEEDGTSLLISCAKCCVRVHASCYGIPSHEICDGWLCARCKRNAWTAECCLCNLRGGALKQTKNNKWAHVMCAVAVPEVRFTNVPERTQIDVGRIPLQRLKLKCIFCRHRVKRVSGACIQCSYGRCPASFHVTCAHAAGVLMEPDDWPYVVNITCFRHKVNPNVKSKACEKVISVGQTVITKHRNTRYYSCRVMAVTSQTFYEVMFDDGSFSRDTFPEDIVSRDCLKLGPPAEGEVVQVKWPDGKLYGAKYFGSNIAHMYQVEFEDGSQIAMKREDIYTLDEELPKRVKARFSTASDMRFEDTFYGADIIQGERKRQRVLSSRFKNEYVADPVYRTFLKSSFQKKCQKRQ

[10] = molecular target: T3, Lysine-specific demethylase 4C; assay: Inhibition of full-length KDM4C (unknown origin) expressed in human KYSE-150 cells assessed as increase in H3K36me3 level after 24 hrs by HTRF assay
[11] = molecular target: Histone lysine demethylase PHF8 (Homo sapiens, UniProt Q9UPP1); assay: Inhibition of PHF8 (unknown origin) using biotinylated H3K9me1 peptide and alpha-ketoglutarate as substrate measured after 20 mins by LANCE TR-FRET assay
[12] = molecular target: T3, Lysine-specific demethylase 4C; assay: Inhibition of KDM4C (unknown origin) using biotinylated H3K9me3 peptide and alpha-ketoglutarate as substrate pretreated for 1 hr followed by substrate addition measured after 20 mins in presence of 0.2 mg/ml BSA by LANCE TR-FRET assay
KYSE-150 cell line = assay: cells; settings: Homo sapiens, KYSE-150, 168 h
Description: Antiproliferative activity against human KYSE-150 cells after 168 hrs by 5-bromo-2'-deoxyuridine thymidine incorporation assay

[13] = molecular target: T4, Lysine-specific demethylase 4C (Homo sapiens) (UniProt Q9H3R0); assay: Inhibition of full-length KDM4C (unknown origin) expressed in human KYSE-150 cells assessed as increase in H3K36me3 level after 24 hrs by HTRF assay
T4 sequence (whole entry): T3 sequence (Q9H3R0 whole entry)

Homo sapiens [14] = organism: Homo sapiens; assay: Inhibition of KDM6 in human KYSE-150 cells assessed as increase in H3K27me3 level at higher concentration after 24 to 96 hrs by UHPLC-MS/MS analysis; assay type: cell-based
Homo sapiens [15] = organism: Homo sapiens; assay: Inhibition of KDM5 in human KYSE-150 cells assessed as increase in H3K4me3 level at higher concentration after 24 hrs by UHPLC-MS/MS analysis; assay type: cell-based
IMR-90 = assay: Cytotoxicity against human IMR90 cells; assay type: cell-based
[16] = molecular target: Lysine-specific histone demethylase 1A (Homo sapiens) (UniProt O60341); assay: Inhibition of KDM1 in human KYSE-150 cells assessed as increase in H3K4me2 level at higher concentration after 24 hrs by UHPLC-MS/MS analysis; assay type: cell-based
[17] = Permeability of the compound by PAMPA; assay type: ADME; settings: read-out: permeability

Lysine-specific demethylase 6B, sequence (O15054 whole entry): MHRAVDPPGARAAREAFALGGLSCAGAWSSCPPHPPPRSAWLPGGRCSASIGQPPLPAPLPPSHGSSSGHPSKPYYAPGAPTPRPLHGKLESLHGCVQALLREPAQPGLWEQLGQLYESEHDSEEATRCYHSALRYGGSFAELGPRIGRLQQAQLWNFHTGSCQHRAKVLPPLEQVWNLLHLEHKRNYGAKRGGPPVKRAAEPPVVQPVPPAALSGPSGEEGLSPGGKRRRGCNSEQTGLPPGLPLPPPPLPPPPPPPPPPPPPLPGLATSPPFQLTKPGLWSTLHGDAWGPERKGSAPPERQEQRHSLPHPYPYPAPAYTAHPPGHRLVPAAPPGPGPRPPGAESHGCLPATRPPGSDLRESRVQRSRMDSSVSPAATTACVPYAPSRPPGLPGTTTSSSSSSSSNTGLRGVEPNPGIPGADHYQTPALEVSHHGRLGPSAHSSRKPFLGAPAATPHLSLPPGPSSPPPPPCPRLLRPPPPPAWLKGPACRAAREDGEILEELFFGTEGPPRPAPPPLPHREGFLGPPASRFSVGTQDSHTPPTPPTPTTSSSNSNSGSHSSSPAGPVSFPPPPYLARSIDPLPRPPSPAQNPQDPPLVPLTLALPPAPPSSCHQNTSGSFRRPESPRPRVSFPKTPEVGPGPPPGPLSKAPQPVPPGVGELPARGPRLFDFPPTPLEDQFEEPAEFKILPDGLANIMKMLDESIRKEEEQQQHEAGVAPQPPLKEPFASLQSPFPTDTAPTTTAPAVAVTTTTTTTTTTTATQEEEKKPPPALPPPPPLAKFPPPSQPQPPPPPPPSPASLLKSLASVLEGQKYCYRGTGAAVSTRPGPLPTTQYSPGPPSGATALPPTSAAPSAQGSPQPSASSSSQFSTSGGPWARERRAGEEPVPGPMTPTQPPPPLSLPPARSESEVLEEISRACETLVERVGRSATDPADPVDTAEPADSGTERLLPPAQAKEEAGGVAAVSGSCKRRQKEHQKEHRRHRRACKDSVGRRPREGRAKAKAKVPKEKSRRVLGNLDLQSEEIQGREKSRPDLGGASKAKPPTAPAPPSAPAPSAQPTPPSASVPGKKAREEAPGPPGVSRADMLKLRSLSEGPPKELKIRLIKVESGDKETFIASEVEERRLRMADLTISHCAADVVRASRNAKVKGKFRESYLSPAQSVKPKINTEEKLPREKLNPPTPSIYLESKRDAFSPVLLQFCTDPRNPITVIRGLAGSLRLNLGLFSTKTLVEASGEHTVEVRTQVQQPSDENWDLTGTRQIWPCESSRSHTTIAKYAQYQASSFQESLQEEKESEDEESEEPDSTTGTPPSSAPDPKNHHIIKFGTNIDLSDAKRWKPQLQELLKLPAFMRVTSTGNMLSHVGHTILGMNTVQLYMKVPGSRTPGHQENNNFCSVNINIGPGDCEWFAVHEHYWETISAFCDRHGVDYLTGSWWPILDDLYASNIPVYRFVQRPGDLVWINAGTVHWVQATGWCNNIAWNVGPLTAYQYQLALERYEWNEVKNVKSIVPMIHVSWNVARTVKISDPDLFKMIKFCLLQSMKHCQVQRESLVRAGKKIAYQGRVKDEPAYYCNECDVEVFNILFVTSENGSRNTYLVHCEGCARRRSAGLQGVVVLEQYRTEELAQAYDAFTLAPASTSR
Histone lysine demethylase PHF8, sequence (Q9UPP1 whole entry): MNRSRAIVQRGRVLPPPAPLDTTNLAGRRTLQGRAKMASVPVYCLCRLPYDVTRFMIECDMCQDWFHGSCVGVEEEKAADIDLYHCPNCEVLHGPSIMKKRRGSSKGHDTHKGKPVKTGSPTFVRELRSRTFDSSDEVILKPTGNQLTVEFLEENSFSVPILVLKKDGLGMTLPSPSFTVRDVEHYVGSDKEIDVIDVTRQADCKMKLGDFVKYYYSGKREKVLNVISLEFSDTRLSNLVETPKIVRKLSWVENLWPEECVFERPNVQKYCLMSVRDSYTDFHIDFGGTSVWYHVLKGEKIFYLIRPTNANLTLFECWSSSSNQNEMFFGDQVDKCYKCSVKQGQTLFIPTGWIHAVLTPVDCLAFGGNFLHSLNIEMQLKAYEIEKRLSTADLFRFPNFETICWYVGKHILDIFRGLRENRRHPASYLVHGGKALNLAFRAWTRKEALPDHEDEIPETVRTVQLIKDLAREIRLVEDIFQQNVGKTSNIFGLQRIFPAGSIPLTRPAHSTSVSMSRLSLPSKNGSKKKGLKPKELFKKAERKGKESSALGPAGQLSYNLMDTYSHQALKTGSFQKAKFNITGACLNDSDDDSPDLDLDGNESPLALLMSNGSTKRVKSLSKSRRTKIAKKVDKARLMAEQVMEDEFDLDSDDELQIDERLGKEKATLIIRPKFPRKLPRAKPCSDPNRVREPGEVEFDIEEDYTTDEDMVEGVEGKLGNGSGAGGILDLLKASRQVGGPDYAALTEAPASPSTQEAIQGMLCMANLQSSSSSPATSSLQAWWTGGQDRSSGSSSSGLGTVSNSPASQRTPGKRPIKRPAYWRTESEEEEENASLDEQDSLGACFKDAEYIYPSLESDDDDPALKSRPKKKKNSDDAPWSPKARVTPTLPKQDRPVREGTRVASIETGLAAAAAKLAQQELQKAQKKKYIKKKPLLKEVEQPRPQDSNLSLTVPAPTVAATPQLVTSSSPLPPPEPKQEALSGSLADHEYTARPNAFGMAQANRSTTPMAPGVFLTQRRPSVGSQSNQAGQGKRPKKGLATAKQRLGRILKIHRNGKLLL
Lysine-specific demethylase 3B, sequence (Q7LBC6 whole entry): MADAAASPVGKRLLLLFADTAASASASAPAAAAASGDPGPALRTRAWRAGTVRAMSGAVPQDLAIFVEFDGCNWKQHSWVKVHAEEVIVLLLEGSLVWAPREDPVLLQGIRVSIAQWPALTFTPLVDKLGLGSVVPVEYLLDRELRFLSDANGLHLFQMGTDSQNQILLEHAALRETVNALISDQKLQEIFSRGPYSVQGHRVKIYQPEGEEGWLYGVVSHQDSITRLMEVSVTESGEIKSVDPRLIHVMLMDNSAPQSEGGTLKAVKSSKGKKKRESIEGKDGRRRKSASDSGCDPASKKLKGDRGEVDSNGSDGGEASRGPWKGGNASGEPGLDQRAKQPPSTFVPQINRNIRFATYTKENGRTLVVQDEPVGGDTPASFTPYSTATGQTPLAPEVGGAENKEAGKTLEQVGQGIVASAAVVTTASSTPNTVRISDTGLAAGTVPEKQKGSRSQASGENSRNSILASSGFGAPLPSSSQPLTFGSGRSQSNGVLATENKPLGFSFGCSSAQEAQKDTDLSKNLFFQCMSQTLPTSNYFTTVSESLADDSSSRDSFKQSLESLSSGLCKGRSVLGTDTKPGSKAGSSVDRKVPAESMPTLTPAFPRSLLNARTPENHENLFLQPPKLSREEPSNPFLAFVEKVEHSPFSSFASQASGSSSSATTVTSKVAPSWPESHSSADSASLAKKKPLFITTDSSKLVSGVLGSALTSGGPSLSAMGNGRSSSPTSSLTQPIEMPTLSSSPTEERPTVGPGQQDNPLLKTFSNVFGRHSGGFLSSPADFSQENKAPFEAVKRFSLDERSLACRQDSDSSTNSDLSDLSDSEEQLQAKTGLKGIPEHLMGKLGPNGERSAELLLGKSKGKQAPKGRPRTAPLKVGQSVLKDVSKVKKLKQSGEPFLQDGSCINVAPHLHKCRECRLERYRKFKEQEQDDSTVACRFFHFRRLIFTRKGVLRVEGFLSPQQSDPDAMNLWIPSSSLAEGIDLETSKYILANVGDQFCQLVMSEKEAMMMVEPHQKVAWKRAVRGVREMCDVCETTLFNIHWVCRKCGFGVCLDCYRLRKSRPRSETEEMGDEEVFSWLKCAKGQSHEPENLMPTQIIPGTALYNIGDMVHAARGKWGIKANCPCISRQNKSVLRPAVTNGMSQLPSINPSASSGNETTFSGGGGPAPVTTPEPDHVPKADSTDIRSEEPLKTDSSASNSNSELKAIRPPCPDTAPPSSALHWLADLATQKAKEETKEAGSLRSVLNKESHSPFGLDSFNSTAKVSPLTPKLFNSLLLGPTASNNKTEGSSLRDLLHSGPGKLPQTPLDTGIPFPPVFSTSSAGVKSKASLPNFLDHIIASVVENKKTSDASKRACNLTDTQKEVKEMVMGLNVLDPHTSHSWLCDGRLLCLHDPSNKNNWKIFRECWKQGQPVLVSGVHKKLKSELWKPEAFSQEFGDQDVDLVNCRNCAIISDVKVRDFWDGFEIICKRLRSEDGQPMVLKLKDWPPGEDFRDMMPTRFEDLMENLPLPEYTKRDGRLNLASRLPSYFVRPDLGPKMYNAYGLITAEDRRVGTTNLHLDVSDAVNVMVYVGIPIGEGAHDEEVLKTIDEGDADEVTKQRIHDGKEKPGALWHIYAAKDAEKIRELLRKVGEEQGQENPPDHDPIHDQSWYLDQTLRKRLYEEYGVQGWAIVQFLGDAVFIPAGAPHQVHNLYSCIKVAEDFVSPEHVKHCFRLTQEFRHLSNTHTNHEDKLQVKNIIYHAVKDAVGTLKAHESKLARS

For `CN(c1ccccc1)c1ccc2c(c1)CCC[C@H]2CNc1cnccc1C(=O)O`, the AUC [1] was 10400 ng·h/mL, the bioavailability [2] was 30% and the IC50 [3] was over 4000 nM. It also gave an IC50 [4] of over 4000 nM, an IC50 [5] of over 4000 nM and a clearance [6] of 6.9 mL/min/kg. It also gave an IC50 [7] of over 4000 nM, a Vd [8] of 0.675 L/kg and an IC50 [9] of 9 nM. The EC50 [10] was 1.3 nM and the IC50 [11] was over 4000 nM.

In the case of `O=C(O)c1ccncc1NC[C@@H]1CCCc2cc(Sc3ccccc3)ccc21`, the IC50 [12] is reported as 48 nM and the EC50 [10] is reported as 19 nM.

For `O=C(O)c1ccncc1NC[C@H]1CCCc2ccccc21`, the EC50 (KYSE-150 cell line) was over 100000 nM, the IC50 [12] was over 2000 nM and the inhibition [13] was “inactive”.

`O=C(O)c1ccncc1NC[C@@H]1CCCc2ccccc21` showed an EC50 (KYSE-150 cell line) of 4000 nM and an IC50 [12] of 8 nM.

`O=C(O)c1ccncc1NCC1CCCc2ccccc21` (centres undefined) gave an EC50 (KYSE-150 cell line) of 6000 nM and an IC50 [12] of 12 nM.

For `COc1ccc2c(c1)CCC[C@H]2CNc1cnccc1C(=O)O`, the EC50 (KYSE-150 cell line) was 830 nM, the inhibition (Homo sapiens [14]) was “Active” and the inhibition (Homo sapiens [15]) was “Below limit of detection”. The EC50 (IMR-90) was over 30000 nM, the inhibition [16] was “Below limit of detection” and the Papp [17] was 1.84 ×10⁻⁶ cm/s. The IC50 [12] was 6 nM, the inhibition [13] was “Dose-dependent effect” and the EC50 [10] was 560 nM.
